This passage reports IC50 results from patent publication US20180243298A1, “TRPV3 MODULATORS” (AbbVie Inc., priority 2015, published 2018).

In the experiment the target is T1, human TRPV3 (Homo sapiens, UniProt Q8NET8).
T1 construct: expressed in transfected cells; host or cells: HEK293
T1 sequence (Q8NET8 1-790): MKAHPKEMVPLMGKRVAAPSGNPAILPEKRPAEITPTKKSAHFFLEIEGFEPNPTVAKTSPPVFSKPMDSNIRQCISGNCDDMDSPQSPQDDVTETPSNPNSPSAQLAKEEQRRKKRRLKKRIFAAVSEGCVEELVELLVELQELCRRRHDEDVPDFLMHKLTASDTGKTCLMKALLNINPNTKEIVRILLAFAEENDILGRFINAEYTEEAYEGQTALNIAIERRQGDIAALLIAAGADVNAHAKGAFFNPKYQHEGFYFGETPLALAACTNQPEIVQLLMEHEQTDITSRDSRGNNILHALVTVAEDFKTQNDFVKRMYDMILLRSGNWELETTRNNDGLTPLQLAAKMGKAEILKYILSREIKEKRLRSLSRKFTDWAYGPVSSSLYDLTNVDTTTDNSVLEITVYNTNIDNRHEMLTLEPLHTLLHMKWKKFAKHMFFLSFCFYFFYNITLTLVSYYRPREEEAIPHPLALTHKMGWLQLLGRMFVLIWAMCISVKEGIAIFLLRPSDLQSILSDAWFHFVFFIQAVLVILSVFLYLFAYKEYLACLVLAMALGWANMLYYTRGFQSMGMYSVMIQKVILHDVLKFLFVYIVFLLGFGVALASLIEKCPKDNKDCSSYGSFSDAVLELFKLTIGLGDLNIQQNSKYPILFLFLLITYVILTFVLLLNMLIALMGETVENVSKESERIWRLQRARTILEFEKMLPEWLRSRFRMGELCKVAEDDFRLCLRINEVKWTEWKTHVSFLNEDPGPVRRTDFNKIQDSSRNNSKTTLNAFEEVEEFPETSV
Briefly: Calcium flux assay (FLIPR TETRA), recombinant HEK293 cells expressing TRPV3, 2-APB response. In kind it is cell-based. Conditions: 2-APB at its EC80. A digest of the protocol:
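Response is the peak fluorescence increase over baseline, as a percentage of the compound-free response to 2-APB at EC80. Calcium flux recorded on FLIPR TETRA in stable human or mouse TRPV3 HEK293 cells after 90–120 min Calcium-4 dye loading.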
(In general: Calcium assays in cells follow changes in intracellular calcium, usually with a dye or a luminescent sensor.)

As usually defined, the IC50 is the midpoint of a concentration-inhibition curve. Consider `COc1ncnc(OC)c1C(=O)Nc1nc(C(F)(F)F)c(/C(=N/O)c2ccccn2)s1` [Example 128, N-{5-[(E)-(hydroxyimino)(pyridin-2-yl)methyl]-4-(trifluoromethyl)-1,3-thiazol-2-yl}-4,6-dimethoxypyrimidine-5-carboxamide], for which the 50% inhibitory concentration (IC50) fell in the range of 100 to 500 nM.

As for `COc1ncnc(OC)c1C(=O)Nc1nc(C(F)(F)F)c(-c2cnco2)s1` [Example 140, 4,6-dimethoxy-N-[5-(1,3-oxazol-5-yl)-4-(trifluoromethyl)-1,3-thiazol-2-yl]pyrimidine-5-carboxamide], the IC50 was in the range of 50 to 100 nM.

With `CCOc1ncnc(OCC)c1C(=O)Nc1nc(C(F)(F)F)c(CC)s1` [Example 71, 4,6-diethoxy-N-[5-ethyl-4-(trifluoromethyl)-1,3-thiazol-2-yl]pyrimidine-5-carboxamide], the IC50 was below 50 nM.

On to `COc1ncnc(OC)c1C(=O)Nc1nc(C(F)(F)F)c(-c2cccc(C(F)(F)F)n2)s1` [Example 30, 4,6-dimethoxy-N-{4-(trifluoromethyl)-5-[6-(trifluoromethyl)pyridin-2-yl]-1,3-thiazol-2-yl}pyrimidine-5-carboxamide], for which the IC50 is below 50 nM.

Turning to `CCn1nccc1-c1sc(NC(=O)c2c(OC)ncnc2OC)nc1C(F)(F)F` [Example 142, N-[5-(1-ethyl-1H-pyrazol-5-yl)-4-(trifluoromethyl)-1,3-thiazol-2-yl]-4,6-dimethoxypyrimidine-5-carboxamide], the IC50 fell in the range of 100 to 500 nM.

Turning to `COc1ncnc(OC)c1C(=O)Nc1nc(C(F)(F)F)c(-c2ccccn2)s1` [Example 45, 4,6-dimethoxy-N-[5-(pyridin-2-yl)-4-(trifluoromethyl)-1,3-thiazol-2-yl]pyrimidine-5-carboxamide], the IC50 was in the range of 100 to 500 nM.

`COc1ncnc(OC)c1C(=O)Nc1nc(C(F)(F)F)c(C(=O)c2ccc(F)cn2)s1` [Example 131, N-{5-[(5-fluoropyridin-2-yl)carbonyl]-4-(trifluoromethyl)-1,3-thiazol-2-yl}-4,6-dimethoxypyrimidine-5-carboxamide]: the half-maximal inhibitory concentration (IC50) was below 50 nM.

Take `COc1ncnc(OC)c1C(=O)Nc1nc(C(F)(F)F)c(-c2ccc(C(C)(C)C#N)cc2)s1` [Example 173, N-{5-[4-(2-cyanopropan-2-yl)phenyl]-4-(trifluoromethyl)-1,3-thiazol-2-yl}-4,6-dimethoxypyrimidine-5-carboxamide]: the IC50 fell in the range of 100 to 500 nM.

For `COc1ncnc(OC)c1C(=O)Nc1nc(C(C)(C)C)c(F)s1` [Example 100, N-(4-tert-butyl-5-fluoro-1,3-thiazol-2-yl)-4,6-dimethoxypyrimidine-5-carboxamide], the IC50 is below 50 nM.

On to `COc1ncnc(OC)c1C(=O)Nc1nc(C(F)(F)F)c(-c2cn(C)nc2C(C)C)s1` [Example 181, 4,6-dimethoxy-N-{5-[1-methyl-3-(propan-2-yl)-1H-pyrazol-4-yl]-4-(trifluoromethyl)-1,3-thiazol-2-yl}pyrimidine-5-carboxamide], for which the concentration for half-maximal inhibition (IC50) fell in the range of 50 to 100 nM.

Turning to `COc1ncnc(OC)c1C(=O)Nc1nc(C(F)(F)F)c(CN2CC[C@@H](OC)C2)s1` [Example 60, 4,6-dimethoxy-N-[5-{[(3R)-3-methoxypyrrolidin-1-yl]methyl}-4-(trifluoromethyl)-1,3-thiazol-2-yl]pyrimidine-5-carboxamide], the IC50 lay within 500 to 1000 nM.

Take `CCOc1ncnc(OCC)c1C(=O)Nc1nc(C(F)(F)F)c(C#N)s1` [Example 7, N-[5-cyano-4-(trifluoromethyl)-1,3-thiazol-2-yl]-4,6-diethoxypyrimidine-5-carboxamide]: the IC50 lay within 500 to 1000 nM.

`COc1ncnc(OC)c1C(=O)Nc1nc(C(F)(F)F)c(S(=O)(=O)c2ccc(C)cc2)s1` [Example 110, 4,6-dimethoxy-N-[5-(p-tolylsulfonyl)-4-(trifluoromethyl)-1,3-thiazol-2-yl]pyrimidine-5-carboxamide]: the IC50 lay within 100 to 500 nM.

Consider `COc1ncnc(OC)c1C(=O)Nc1nc(C(F)(F)F)c(CNC2CCCC2)s1` [Example 51, N-{5-[(cyclopentylamino)methyl]-4-(trifluoromethyl)-1,3-thiazol-2-yl}-4,6-dimethoxypyrimidine-5-carboxamide], for which the concentration for half-maximal inhibition (IC50) is 100 to 500 nM.

`COc1ncnc(SC)c1C(=O)Nc1nc(C(F)(F)F)c(-c2ccccc2C#N)s1` [Example 159, N-[5-(2-cyanophenyl)-4-(trifluoromethyl)-1,3-thiazol-2-yl]-4-methoxy-6-(methylsulfanyl)pyrimidine-5-carboxamide]: the half-inhibitory concentration (IC50) is below 50 nM.

With `COc1ncnc(OC)c1C(=O)Nc1nc(C(F)(F)F)c(C#CC(C)(C)O)s1` [Example 19, N-[5-(3-hydroxy-3-methylbut-1-yn-1-yl)-4-(trifluoromethyl)-1,3-thiazol-2-yl]-4,6-dimethoxypyrimidine-5-carboxamide], the IC50 lay in the range of 50 to 100 nM.

On to `COc1ncnc(OC)c1C(=O)Nc1nc(C(F)(F)F)c(C(=O)c2ccccc2)s1` [Example 121, N-[5-benzoyl-4-(trifluoromethyl)-1,3-thiazol-2-yl]-4,6-dimethoxypyrimidine-5-carboxamide], for which the 50% inhibitory concentration (IC50) lay within 50 to 100 nM.

With `COc1ncnc(OC)c1C(=O)Nc1nc(-c2ccc(C(F)(F)F)cn2)c(C2(C)OCCO2)s1` [Example 90, 4,6-dimethoxy-N-{5-(2-methyl-1,3-dioxolan-2-yl)-4-[5-(trifluoromethyl)pyridin-2-yl]-1,3-thiazol-2-yl}pyrimidine-5-carboxamide], the half-inhibitory concentration (IC50) was 50 to 100 nM.

In the case of `COc1ncnc(OC)c1C(=O)Nc1nc(C(F)(F)F)c(C2COC(C)(C)O2)s1` (centres unmarked) [Example 35, N-[5-(2,2-dimethyl-1,3-dioxolan-4-yl)-4-(trifluoromethyl)-1,3-thiazol-2-yl]-4,6-dimethoxypyrimidine-5-carboxamide], the half-maximal inhibitory concentration (IC50) fell in the range of 100 to 500 nM.

As to `COc1ncnc(OC)c1C(=O)Nc1nc(C(F)(F)F)c(-c2cccc(NS(=O)(=O)N(C)C)c2)s1` [Example 201, N-[5-{3-[(dimethylsulfamoyl)amino]phenyl}-4-(trifluoromethyl)-1,3-thiazol-2-yl]-4,6-dimethoxypyrimidine-5-carboxamide], the IC50 lay within 50 to 100 nM.

On to `COc1ncnc(OC)c1C(=O)Nc1nc(C(F)(F)F)c(C(O)c2ccccc2)s1` (centres unmarked) [Example 120, N-{5-[hydroxy(phenyl)methyl]-4-(trifluoromethyl)-1,3-thiazol-2-yl}-4,6-dimethoxypyrimidine-5-carboxamide], for which the IC50 lay within 100 to 500 nM.

For `COc1ncnc(OC)c1C(=O)Nc1nc(C(F)(F)F)c(C2CCCOC2)s1` (centres unmarked) [Example 148, 4,6-dimethoxy-N-[5-(tetrahydro-2H-pyran-3-yl)-4-(trifluoromethyl)-1,3-thiazol-2-yl]pyrimidine-5-carboxamide], the half-maximal inhibitory concentration (IC50) fell in the range of 50 to 100 nM.

On to `COc1ncnc(OC)c1C(=O)Nc1nc(C(F)(F)F)c([S+]([O-])Cc2ccccc2)s1` (centres unmarked) [Example 112, N-(5-(benzylsulfinyl)-4-(trifluoromethyl)thiazol-2-yl)-4,6-dimethoxypyrimidine-5-carboxamide], for which the IC50 was above 1000 nM.

`COc1ncnc(OC)c1C(=O)Nc1nc(C(F)(F)F)c(C2CC(C(C)C)=NO2)s1` (centres unmarked) [Example 170, 4,6-dimethoxy-N-{5-[3-(propan-2-yl)-4,5-dihydro-1,2-oxazol-5-yl]-4-(trifluoromethyl)-1,3-thiazol-2-yl}pyrimidine-5-carboxamide]: the IC50 was in the range of 100 to 500 nM.

With “4,6-dimethoxy-N-[5-(2-methoxypyrimidin-5-yl)-4-(trifluoromethyl)-1,3-thiazol-2-yl]pyrimidine-5-carboxamide [Example 183]”, the IC50 lay in the range of 100 to 500 nM.

On to `COc1cc(C#N)ccc1-c1sc(NC(=O)c2c(OC)ncnc2OC)nc1C(F)(F)F` [Example 43, N-[5-(4-cyano-2-methoxyphenyl)-4-(trifluoromethyl)-1,3-thiazol-2-yl]-4,6-dimethoxypyrimidine-5-carboxamide], for which the IC50 is below 50 nM.

With `COc1ncnc(OC)c1C(=O)Nc1nc(C(F)(F)F)c(-c2ocnc2C)s1` [Example 141, 4,6-dimethoxy-N-[5-(4-methyl-1,3-oxazol-5-yl)-4-(trifluoromethyl)-1,3-thiazol-2-yl]pyrimidine-5-carboxamide], the IC50 is 50 to 100 nM.

On to `COc1ncnc(OC)c1C(=O)Nc1nc(C(F)(F)F)c(C2=CCN(S(C)(=O)=O)CC2)s1` [Example 165, 4,6-dimethoxy-N-{5-[1-(methylsulfonyl)-1,2,3,6-tetrahydropyridin-4-yl]-4-(trifluoromethyl)-1,3-thiazol-2-yl}pyrimidine-5-carboxamide], for which the IC50 lay within 500 to 1000 nM.

For the molecule `COc1ncnc(OC)c1C(=O)Nc1nc(C(F)(F)F)c(C2CCCOC2)s1` (single isomer, unassigned) [Example 149, 4,6-dimethoxy-N-{5-[(3S*)-tetrahydro-2H-pyran-3-yl]-4-(trifluoromethyl)-1,3-thiazol-2-yl}pyrimidine-5-carboxamide], the concentration for half-maximal inhibition (IC50) was above 1000 nM.
